The record followed here is PubChem BioAssay AID256 (DTP/NCI, 2004).

For this experiment, the system named is CD2F1 mice, L1210 leukemia ip, survival T/C. The experiment can be described thus: NCI In Vivo Anticancer Drug Screen. Data for tumor model L1210 Leukemia (intraperitoneal) in CD2F1 (CDF1) mice. The note with it: higher = longer survival. In a few lines:
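Implant tumor; dose compound or vehicle; measure endpoint in both groups; report treated divided by control.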

The mark [1] stands for this setting: endpoint: mean survival time, dose: 100.0 mg/kg/injection, schedule: Q01DX009 (ip), vehicle: saline.
Setting [2] is: endpoint: mean survival time, dose: 200.0 mg/kg/injection, schedule: Q01DX009 (ip), vehicle: saline.
Where [3] appears, read: endpoint: mean survival time, dose: 100.0 mg/kg/injection, schedule: Q01DX001 (ip), vehicle: saline with Tween-80.
[4] abbreviates: endpoint: mean survival time, dose: 100.0 mg/kg/injection, schedule: Q01DX009 (ip), vehicle: saline with Tween-80.
The mark [5] stands for this setting: endpoint: mean survival time, dose: 200.0 mg/kg/injection, schedule: Q01DX001 (ip), vehicle: saline with Tween-80.
The mark [6] stands for this setting: endpoint: mean survival time, dose: 200.0 mg/kg/injection, schedule: Q01DX009 (ip), vehicle: saline with Tween-80.
[7] abbreviates: endpoint: mean survival time, dose: 400.0 mg/kg/injection, schedule: Q01DX001 (ip), vehicle: saline with Tween-80.
Where [8] appears, read: endpoint: mean survival time, dose: 400.0 mg/kg/injection, schedule: Q01DX009 (ip), vehicle: saline with Tween-80.
The mark [9] stands for this setting: endpoint: mean survival time, dose: 100.0 mg/kg/injection, schedule: Q01DX001 (ip), vehicle: saline.
Where [10] appears, read: endpoint: mean survival time, dose: 200.0 mg/kg/injection, schedule: Q01DX001 (ip), vehicle: saline.
[11] abbreviates: endpoint: mean survival time, dose: 400.0 mg/kg/injection, schedule: Q01DX001 (ip), vehicle: saline.
The mark [12] stands for this setting: endpoint: mean survival time, dose: 50.0 mg/kg/injection, schedule: Q01DX009 (ip), vehicle: saline with Tween-80.
Where [13] appears, read: endpoint: mean survival time, dose: 100.0 mg/kg/injection, schedule: Q04DX003 (ip), vehicle: saline with Tween-80.
The mark [14] stands for this setting: endpoint: mean survival time, dose: 200.0 mg/kg/injection, schedule: Q04DX003 (ip), vehicle: saline with Tween-80.

Values joined by “and” are separate entries in the source; they are usually repeats but may differ in a detail not shown here. Equal values may be shown once. Inconclusive results and toxic doses are left out.

With `OCCCNCc1ccccc1`, the T/C by setting is: under setting [1], 97 % of control; under setting [2], 96 % of control; (endpoint: mean survival time, dose: 400.0 mg/kg/injection, schedule: Q01DX009 (ip), vehicle: saline) 100 % of control.
On to `O=CC(Cc1ccccc1)CC(O)c1ccccc1` (stereo not given), for which the T/C by setting is: under setting [3], 95 % of control; under setting [4], 107 % of control; under setting [5], 88 % of control; under setting [6], 96 % of control; under setting [7], 91 % of control; under setting [8], 96 % of control.
On to `CC1(C)NC(=O)NC1=O`, for which the T/C reads like this: under setting [9], 98 % of control; under setting [10], 107 % of control; under setting [11], 107 % of control.
In the case of `CSc1nc(NN)n2nccc2n1`, the T/C is 104 % of control (endpoint: median survival time, dose: 50.0 mg/kg/injection, schedule: Q01DX005 (ip), vehicle: saline) and 103 % of control (endpoint: median survival time, dose: 100.0 mg/kg/injection, schedule: Q01DX005 (ip), vehicle: saline).
Turning to `OCCNc1c(Cl)ccc(Cl)c1Cl`, the T/C under setting [12] was 107 % of control, the T/C under setting [4] is 103 % of control and the T/C under setting [6] is 98 % of control.
With `C#CC(C)OCCO` (stereo not given), the T/C (endpoint: mean survival time, dose: 100.0 mg/kg/injection, schedule: Q04DX003 (ip), vehicle: acetone) is 104 % of control; the T/C (endpoint: mean survival time, dose: 200.0 mg/kg/injection, schedule: Q04DX003 (ip), vehicle: acetone) is 98 % of control; the T/C (endpoint: mean survival time, dose: 400.0 mg/kg/injection, schedule: Q04DX003 (ip), vehicle: acetone) is 120 % of control.
As for `O=CO.[Cu+2]`, the T/C is 90 % of control (endpoint: mean survival time, dose: 5.0 mg/kg/injection, schedule: Q01DX001 (ip), vehicle: saline) and 98 % of control (endpoint: mean survival time, dose: 10.0 mg/kg/injection, schedule: Q01DX001 (ip), vehicle: saline).
Consider `CN1CCC(O)(C#N)CC1`, for which the T/C was 102 % of control (endpoint: mean survival time, dose: 3.75 mg/kg/injection, schedule: Q04DX003 (ip), vehicle: saline); 102 % of control (endpoint: mean survival time, dose: 7.5 mg/kg/injection, schedule: Q04DX003 (ip), vehicle: saline); 100 % of control (endpoint: mean survival time, dose: 15.0 mg/kg/injection, schedule: Q04DX003 (ip), vehicle: saline).
For `Cc1cc(NCCCCCCNc2cc(C)nc3cc(N(C)C)ccc23)c2ccc(N(C)C)cc2n1`, the T/C runs as follows: (endpoint: median survival time, dose: 3.12 mg/kg/injection, schedule: Q01DX009 (ip), vehicle: distilled water + Tween-80 + alcohol) 121 % of control; (endpoint: median survival time, dose: 25.0 mg/kg/injection, schedule: Q01DX009 (ip), vehicle: distilled water + Tween-80 + alcohol) 152 % of control and 158 % of control.
Take `CC(C)(C)c1ccc(C(=O)N2CCOC23CCCCC3)cc1`: the T/C reads like this: (endpoint: median survival time, dose: 50.0 mg/kg/injection, schedule: Q01DX005 (ip), vehicle: saline with Tween-80) 101 % of control and 104 % of control; (endpoint: median survival time, dose: 100.0 mg/kg/injection, schedule: Q01DX005 (ip), vehicle: saline with Tween-80) 96 % of control and 104 % of control; (endpoint: median survival time, dose: 200.0 mg/kg/injection, schedule: Q01DX005 (ip), vehicle: saline with Tween-80) 98 % of control and 101 % of control; (endpoint: median survival time, dose: 400.0 mg/kg/injection, schedule: Q01DX005 (ip), vehicle: saline with Tween-80) 100 % of control; (endpoint: median survival time, dose: 800.0 mg/kg/injection, schedule: Q01DX005 (ip), vehicle: saline with Tween-80) 96 % of control and 101 % of control.
Consider `CCC1Cc2c([nH]c(=O)n(C)c2=O)O1` (stereo not given), for which the T/C is, setting by setting: under setting [9], 97 % of control; under setting [10], 97 % of control; under setting [11], 97 % of control.
With `Nc1cc(=O)[nH]c(=S)[nH]1.[Pt]`, the T/C is 105 % of control (endpoint: mean survival time, dose: 3.13 mg/kg/injection, schedule: Q04DX003 (ip), vehicle: distilled water + Tween-80); 100 % of control (endpoint: mean survival time, dose: 6.25 mg/kg/injection, schedule: Q04DX003 (ip), vehicle: distilled water + Tween-80); 101 % of control (endpoint: mean survival time, dose: 12.5 mg/kg/injection, schedule: Q04DX003 (ip), vehicle: distilled water + Tween-80); 103 % of control (endpoint: mean survival time, dose: 25.0 mg/kg/injection, schedule: Q04DX003 (ip), vehicle: distilled water + Tween-80); 101 % of control (endpoint: mean survival time, dose: 50.0 mg/kg/injection, schedule: Q04DX003 (ip), vehicle: distilled water + Tween-80); 99 % of control (endpoint: mean survival time, dose: 100.0 mg/kg/injection, schedule: Q04DX003 (ip), vehicle: distilled water + Tween-80). For the same compound, the T/C (endpoint: mean survival time, dose: 200.0 mg/kg/injection, schedule: Q04DX003 (ip), vehicle: distilled water + Tween-80) is 94 % of control.
Consider `O=[N+]([O-])c1ccc(O)c(Cl)c1`, for which the T/C (endpoint: mean survival time, dose: 12.5 mg/kg/injection, schedule: Q01DX009 (ip), vehicle: saline with Tween-80) was 86 % of control; the T/C (endpoint: mean survival time, dose: 25.0 mg/kg/injection, schedule: Q01DX009 (ip), vehicle: saline with Tween-80) was 89 % of control; the T/C under setting [12] is 106 % of control and 108 % of control.
`Cc1n[nH]c2ccc(Br)cc2c1=O`: the T/C is 97 % of control under setting [12]; 91 % of control under setting [4]; 101 % of control under setting [13]; 101 % of control under setting [6]; 87 % of control under setting [14].
On to `Brc1ccccc1-c1ccccc1-c1ccccc1`, for which the T/C was 106 % of control under setting [4], 101 % of control under setting [6] and 101 % of control under setting [8].
`CC1(C)CC(=O)C=C(N)C1`: the T/C under setting [4] was 100 % of control, the T/C under setting [6] was 97 % of control and the T/C under setting [8] is 108 % of control.
Consider `CCO/C=C1\SC(=S)N(c2ccccc2C)C1=O`, for which the T/C was 106 % of control and 111 % of control under setting [4]; 103 % of control under setting [13]; 103 % of control and 106 % of control under setting [6]; 108 % of control under setting [14]; 88 % of control under setting [8]; 113 % of control (endpoint: mean survival time, dose: 400.0 mg/kg/injection, schedule: Q04DX003 (ip), vehicle: saline with Tween-80).
Consider `C/C(=C\c1ccccc1)CCC(=O)O`, for which the T/C runs as follows: (endpoint: mean survival time, dose: 50.0 mg/kg/injection, schedule: Q04DX003 (ip), vehicle: saline) 100 % of control; (endpoint: mean survival time, dose: 100.0 mg/kg/injection, schedule: Q04DX003 (ip), vehicle: saline) 103 % of control; (endpoint: mean survival time, dose: 200.0 mg/kg/injection, schedule: Q04DX003 (ip), vehicle: saline) 97 % of control.
`CC1=CC(=C2C=C(C)C(=O)C(C)=C2)C=C(C)C1=O`: the T/C runs as follows: (endpoint: mean survival time, dose: 50.0 mg/kg/injection, schedule: Q01DX001 (ip), vehicle: saline with Tween-80) 87 % of control; under setting [3], 87 % of control; under setting [5], 91 % of control.
`O=CN1CCCCC1`: the T/C was 97 % of control (endpoint: mean survival time, dose: 100.0 mg/kg/injection, schedule: Q04DX002 (ip), vehicle: saline) and 108 % of control (endpoint: mean survival time, dose: 200.0 mg/kg/injection, schedule: Q04DX002 (ip), vehicle: saline).
As for `C[Si](C)(C)NP(=O)(Oc1ccc([N+](=O)[O-])cc1)Oc1ccc([N+](=O)[O-])cc1`, the T/C is, setting by setting: (endpoint: mean survival time, dose: 15.6 mg/kg/injection, schedule: Q01DX001 (ip), vehicle: other) 110 % of control; (endpoint: mean survival time, dose: 31.3 mg/kg/injection, schedule: Q01DX001 (ip), vehicle: other) 97 % of control; (endpoint: mean survival time, dose: 62.5 mg/kg/injection, schedule: Q01DX001 (ip), vehicle: other) 102 % of control and 108 % of control; (endpoint: mean survival time, dose: 125.0 mg/kg/injection, schedule: Q01DX001 (ip), vehicle: other) 87 % of control and 94 % of control.
`O=C1C=CC(c2ccccc2)(c2ccccc2)C=C1`: the T/C was 93 % of control under setting [3] and 86 % of control under setting [7].
With `CC(CN1c2ccccc2Sc2ccccc21)N(C)CCO` (stereo not given), the T/C runs as follows: (endpoint: mean survival time, dose: 50.0 mg/kg/injection, schedule: Q01DX001 (ip), vehicle: saline) 101 % of control; under setting [9], 101 % of control; under setting [10], 97 % of control; under setting [11], 97 % of control.
As for `CCc1c(CNc2ccc(C(=O)NC(CC(=O)O)C(=O)O)cc2)ccc2nc(N)nc(N)c12` (stereo not given), the T/C is 105 % of control (endpoint: mean survival time, dose: 0.25 mg/kg/injection, schedule: Q01DX001 (ip), vehicle: saline); 114 % of control (endpoint: mean survival time, dose: 0.5 mg/kg/injection, schedule: Q01DX001 (ip), vehicle: saline); 119 % of control (endpoint: mean survival time, dose: 1.0 mg/kg/injection, schedule: Q01DX001 (ip), vehicle: saline); 163 % of control (endpoint: mean survival time, dose: 4.0 mg/kg/injection, schedule: Q01DX001 (ip), vehicle: saline).
As to `CC1(C)CCC2(CC1)CC(=O)OC2=O`, the T/C reads like this: under setting [4], 109 % of control; under setting [6], 105 % of control; under setting [8], 100 % of control.
`BrCC[CH2][Sn]([Br])([Br])[Br]`: the T/C reads like this: (endpoint: mean survival time, dose: 50.0 mg/kg/injection, schedule: Q01DX009 (ip), vehicle: saline) 103 % of control; under setting [1], 91 % of control; under setting [2], 95 % of control.
